Measured values from patent publication US20190183910A1, “ENHANCING DNA REPAIR AND PREVENTING AGING AND ITS CONSEQUENCES IN REPRODUCTIVE AND OTHER CELLS” (NEW YORK MEDICAL COLLEGE, priority 2016, published 2019).

How the values were obtained:
[1] = post-transplantation clinical trials; cited from earlier work
[2] = clinical use, FDA-approved for multiple sclerosis; cited from earlier work
human sperm = assay: Alkaline comet assay on human sperm; format: cell-based; settings: H2O2 alone, without ATM inhibitor, n=3, mean±SEM
mouse sperm [3] = assay: Neutral comet assay on mouse sperm; format: cell-based; settings: mouse sperm, H2O2 alone (1 mM), without ATM inhibitor, n=9, mean±SEM
Description: (§1) Treatment was performed with genotoxic stress (1 mM H2O2), S1P (200 μM), and S1P with genotoxic stress and control in culture for one hour. Also, the use of an ATM inhibitor was utilized (10 μM) (KU-55593, Abcam) (Li et al., 2014). We assessed DNA damage, apoptosis, and chromatin integrity. We also studied the DNA DSB repair gene expression by qRT-PCR in sperm lysates.
Slides were prepared 48 hours prior to experimentation by coating normal glass microscope slides with 500 μl normal melting point agar (NMPA, 0.5% w/v in PBS) solution and left to dry at room temperature for no less than 48 hours. Once samples were obtained, 10 μl of mouse sperm suspension was mixed with 90 μl of 0.5% low melting point agar (LMPA). Then, this 100 μl solution was added to the NMPA-coated slides. Coverslips were added and slides were placed on a metallic tray on ice and in the dark for 5 minutes. The cover slips were then removed and another layer of LMPA was added. Cover slips were subsequently replaced before the LMPA hardened. Slides were then kept in the dark on ice again for another 5 minutes. After ten minutes, the cover slips were removed and slides were placed in staining jars containing ice cold lysing solution (2.5 M NaCl, 100 mM EDTA, sodium N-laurylsacrosinate [SLS]. [1% w/v] and 10 mM Trizma base pH10, and 1% Triton-X-100 and 10% DMSO [immediately adding before use]) for 1 hour at 4° C. in a dark place.
After this lysis step, the slides were washed three times for 5 minutes with the cold electrophoresis buffer (0.089 M Tris base, 0.089 M boric acid and 2 mM EDTA [pH 8.3]), and then placed flatly in the electrophoresis tank face up for 30 minutes. This incubation period was used to achieve the unwinding of the DNA. Electrophoresis was then performed at 18 V for 60 minutes. After this, slides were washed twice in PBS for 5 minutes each. Before analysis could occur, the sperm within the slides needed to be fixed by two 10 minute washes in ethanol, and then air drying at room temperature. Ethidium bromide (50 μl at 10 μg/ml in water) was then added on the slide, and sealed with a cover slip. Slides were kept moist, wrapped in aluminum foil to prevent light exposure, and stored at 4° C. until analysis (Smart et al., 2008).
Slides from both alkaline and neutral comets were imaged by fluorescence microscopy using a Nikon OPTIPHOT microscope. ImageJ was used for comet assay analysis, which calculated tail length, tail moment, and % of DNA in the tail. […] The comets were “on scale” for the calculations to be correct (the brightest pixels of interest were below 255 on an 8-bit scale). […] To analyze the slides, an oval around the sperm head was drawn and calculated and then an oval around the sperm tail was drawn and calculated. […] It was calculated as the Pythagorean distance between two points. […]

mouse sperm [4] = assay: Alkaline comet assay on mouse sperm; format: cell-based; settings: mouse sperm, H2O2 alone (1 mM), without ATM inhibitor, n=9, mean±SEM
Description: as §1
Slides were prepared 48 hours prior to experimentation by coating normal glass microscope slides with 500 μl normal melting point agar (0.5% w/v in PBS) solution and left to dry at room temperature for no less than 48 hours. Then, 10 μl of mouse sperm suspension was mixed with 90 μl of 0.5% LMPA. Then this 100 μl solution was added to the NMPA-coated slides. Coverslips were added and slides were placed on a metallic tray on ice and in the dark for 5 minutes. The cover slips were removed and a 90 μl layer of LMPA was added. Cover slips were subsequently replaced before the LMPA hardened. Slides were then kept in the dark on ice again for another 5 minutes. After ten minutes, the cover slips were removed and slides were placed in staining jars containing ice cold lysing solution (2.5 M NaCl, 200 mM NaOH, 100 mM EDTA, 10 mM Trizma Base, 1% Triton X-100 and 10% DMSO [pH 10]) for 1.5 hours at 4° C. in a dark place.
After this lysis step, the slides were washed three times for 5 minutes with TE buffer (pH 8.0), and then placed flatly in the electrophoresis tank face up for 30 minutes to achieve the unwinding of the DNA. The alkaline electrophoresis buffer in this tank included 300 mM NaOH and 1 mM EDTA [pH13]. This incubation period was used to achieve the alkaline unwinding of the DNA. Electrophoresis was then performed at 25 V, 300 mA for 30 minutes. After this, slides were washed twice in neutralization buffer (0.4 M Tris, pH 7.5) for 5 minutes each. Before analysis could occur, the sperm within the slides needed to be fixed by draining the slides well on paper towels and then subjecting them to two 10 minute washes in ethanol, and then air drying at room temperature for 5 minutes. Ethidium bromide (50 μl at 10 μg/ml in water) was then added on the slide, and sealed with a cover slip. Slides were kept moist, wrapped in aluminum foil to prevent light exposure, and stored at 4° C. until analysis (Williams et al., 2014).
Slides from both alkaline and neutral comets were imaged by fluorescence microscopy using a Nikon OPTIPHOT microscope. ImageJ was used for comet assay analysis, which calculated tail length, tail moment, and % of DNA in the tail. […] To analyze the slides, an oval around the sperm head was drawn and calculated and then an oval around the sperm tail was drawn and calculated. […] It was calculated as the Pythagorean distance between two points. […]

Structure (SMILES)	benefit as antirejection medication [1]	safety profile [2]	percent tail DNA, alkaline comet (human sperm)	percent tail DNA, neutral comet (mouse sperm [3])	percent tail DNA, alkaline comet (mouse sperm [4])
CCCCCCCCc1ccc(CCC(N)(CO)CO)cc1 [FTY720]	failed to show any significant benefit	acceptable safety profile	–	–	–
OO [H2O2, reference compound]	–	–	24.0±1.70%	29.6±0.64%	27.3±0.90%
